Assay results taken from patent US11021688B2, “Derivation of human skin organoids from pluripotent stem cells” (INDIANA UNIVERSITY RESEARCH AND TECHNOLOGY CORPORATION, priority 2015, dated 2021).

Legend:
Assay type in all cases: cell-based, human
[1] = system: hPSC-derived skin organoids; test: Pigmentation of hair follicles in skin organoids; details: pre-treated during days 8-12
Method: After 4 days of incubation, 25 μl of CDM containing a 250 ng ml^−1 FGF-2 (50 ng/ml final concentration) and 1 μM LDN-193189 (200 nM final concentration) was added to the pre-existing 100 μl of media in each well. After an additional 4 days (8 days total), 250 of CDM was added to the media. For some experiments, CDM containing 18 μM CHIR99021 (3 μM final concentration; Stemgent) was added to the pre-existing 125 μl of media in each well. During day 12 transfer to OMM, aggregates were resuspended in ice cold undiluted GFR Matrigel and placed in approximately 25 μl droplets on the surface of a 100 mm bacterial culture plate. After at least 30 minutes of incubation at 37° C., the droplets were bathed in 10 ml of OMM. To avoid Matrigel droplet induction, the aggregates can be washed and plated individually into each well of a 24-well low cell adhesion plate in OMM containing 1% GFR Matrigel. After 18 days of differentiation, the CHIR was removed from the medium by washing and the droplet aggregates were moved to a floating culture. Droplets were carefully dislodged using a wide-mouth 1000P tip and transferred to 75 ml of fresh OMM in a 125 ml disposable spinner flask (Corning). Spinner flasks were maintained on an in-incubator stir plate (Thermo Scientific) at 65 RPM for up to 180 days of differentiation. […]

hPSC-derived aggregates [2] = test: Structures formed under treatment plans during days 0-12 of differentiation; details: treatment after initial 10 μM SB+4 ng/ml FGF; with or without insulin
From the text: A-b, Treatment conditions during days 0-12 were: no treatment (NT), LDN (from d4-d12), LDN/FGF (from d4-d12), and LDN/FGF (from d4-d12)+CHIR (from d8-d12). From days 22-55, skin organoids formed in LDN/FGF and LDN/FGF/CHIR conditions with or without insulin. […] We detached the droplet embedded aggregates from the plate and placed them in a rotating or shaking floating culture in OMM for up to 60 days. By 30-55 days of culture, skin organoids consisted of KRT5^+ basal keratinocytes and PDGFRa^+ dermal fibroblasts (FIGS. 7A-7C). The skin organoids developed as a cyst with an inner layer of epidermis and an outer layer of dermis. We next wondered what mechanism controlled the induction of skin organoids and tested various treatment plans with or without insulin in the CDM during days 0-12 of differentiation (FIGS. 8A-8B). After 12 days, the aggregates were transferred to Matrigel in OMM as previously mentioned. […] Intriguingly, without insulin, the skin organoids were 2.5-3.5 times larger on average than insulin treated aggregates. We chose to continue our analysis with FGF/LDN and FGF/LDN/CHIR (without insulin) treated aggregates.

[3] = system: WA25 hESC and mND2-0 hiPSC aggregates; test: Keratinocyte (non-neural ectoderm) induction in hPSC aggregates in 3D culture; details: n=40 aggregates per cell line across 4 experiments
Method: We sought to develop a novel human non-neural induction protocol that could generate skin organoids. Human pluripotent stem cells of the WA25 cell line were dissociated in Essential 8 (E8) culture medium into single cells. Approximately 5000 cells were plated in each well of a 96-well V-bottom plate. Following 24 hours in culture, pluripotent cell aggregates that formed were transferred to 96-well U-bottom plates and cultured in a differentiation medium in the presence of Matrigel. This was considered “day 0” of differentiation (see FIG. 1). In comparing our mouse pluripotent stem cell (mPSC) system with our human (hPSC) system, it was observed that hPSCs appear to produce different endogenous signaling molecules that must be added as exogenous factors for mPSC cultures. Assays were performed to identify key factors dictating non-neural ectoderm induction in hPSC aggregates. It was determined that treating hPSC aggregates with the TGF signaling inhibitor SB-431542 in a chemically-defined medium with or without a low concentration of BMP4 (<5 ng/ml) (CDM; Table 1) produces a surface epithelium of TFAP2^+ (AP2) non-neural ectoderm cells (FIGS. 3A-3F). After a 10-12 day incubation, the aggregates were transferred to a floating culture on low-cell attachment plates in organoid maturation medium (OMM; see Table 2). […]

[4] = system: hPSC-derived skin organoids; test: Skin organoid size with or without insulin in the differentiation medium; details: LDN/FGF and LDN/FGF/CHIR conditions; n=6 organoids/condition
From the text: A-b, Treatment conditions during days 0-12 were: no treatment (NT), LDN (from d4-d12), LDN/FGF (from d4-d12), and LDN/FGF (from d4-d12)+CHIR (from d8-d12). From days 22-55, skin organoids formed in LDN/FGF and LDN/FGF/CHIR conditions with or without insulin.
We detached the droplet embedded aggregates from the plate and placed them in a rotating or shaking floating culture in OMM for up to 60 days. By 30-55 days of culture, skin organoids consisted of KRT5^+ basal keratinocytes and PDGFRa^+ dermal fibroblasts (FIGS. 7A-7C). The skin organoids developed as a cyst with an inner layer of epidermis and an outer layer of dermis. We next wondered what mechanism controlled the induction of skin organoids and tested various treatment plans with or without insulin in the CDM during days 0-12 of differentiation (FIGS. 8A-8B). After 12 days, the aggregates were transferred to Matrigel in OMM as previously mentioned. […] Intriguingly, without insulin, the skin organoids were 2.5-3.5 times larger on average than insulin treated aggregates. We chose to continue our analysis with FGF/LDN and FGF/LDN/CHIR (without insulin) treated aggregates.

hPSC-derived aggregates [5] = test: Mesoderm induction (Brachyury immunohistochemistry) in hPSC aggregates
Method: Representative Brachyury (BRA) immunohistochemistry in day 4 aggregates treated with 10 ng/ml BMP4 (a), 10 μM SB (b), and 10 μM SB+2.5 ng/ml BMP4 (c) on day 0. Scale bars, 50 μm.
With human PSCs, TGFβ inhibition and endogenous BMP signaling promotes formation of TFAP2+ ECAD+ surface ectoderm by 3-6 days of differentiation.

Q: For `Cc1c[nH]c(-c2cnc(NCCNc3ccc(C#N)cn3)nc2-c2ccc(Cl)cc2Cl)n1` [CHIR99021], which “organoids producing pigmented hair follicles” value [1] is on record?
A: 75%

Q: How did the “structures formed by aggregates” value (hPSC-derived aggregates [2]) turn out when `c1ccc2c(-c3cnn4cc(-c5ccc(N6CCNCC6)cc5)cnc34)ccnc2c1` [LDN, LDN-193189] was run?
A: primarily formed keratinocyte cyts

Q: `NC(=O)c1ccc(-c2nc(-c3ccc4c(c3)OCO4)c(-c3ccccn3)[nH]2)cc1` [SB, SB-431542] was tested. Which “aggregates generating a 3D spheroid comprising TFAP2+KRT5+ keratinocytes” value [3] did it give?
A: 100%

Q: Which “size (long-axis diameter) of skin organoids in insulin-free conditions relative to conditions with insulin” value [4] does the source give for “insulin: insulin component of the chemically-defined differentiation medium (CDM)” here?
A: 2.5-3.5 times

B1: bone morphogenetic protein-4 (protein, UniProt P12644 293-408, looked up)
Bone morphogenetic protein 4: SPKHHSQRARKKNKNCRRHSLYVDFSDVGWNDWIVAPPGYQAFYCHGDCPFPLADHLNSTNHAIVQTLVNSVNSSIPKACCVPTELSAISMLYLDEYDKVVLKNYQEMVVEGCGCR
notes: agonist of BMP signaling
Q: For B1, which “induction of mesodermal (BRA+) cells” value (hPSC-derived aggregates [5]; BMP treatment alone) is on record?
A: mesoderm is induced

Q: What about the “induction of mesodermal (Brachyury+) cells” value (hPSC-derived aggregates [5]; low concentration of BMP-4 during non-neural ectoderm induction) of the same molecule?
A: not induced
